Assays:
[1] = Particle size and PDI by dynamic light scattering (Malvern Zetasizer); format: physicochemical; parameters: Final size: unit not given here; details: for Final size: LNP formulation
How it was run: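 Nanoparticles diluted in PBS to a count rate of about 200-400 kcts and measured by dynamic light scattering; size given as intensity-weighted average diameter, with polydispersity index from the same measurement.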

Factor VII = Factor VII activity assay, in vivo liver delivery of FVII siRNA LNP; parameters: species or system mouse; details: dose 1 mg/kg siRNA i.v., ~48 h; lipid/no neutral lipid/CHOL/GM-020 NOF 60/0/36/4, N/P 3
How it was run: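 Female CD-1 mice (~25 g) given a single i.v. tail-vein dose of FVII siRNA in LNPs (cationic, stealth, neutral lipids), dosed as mg siRNA/kg. Plasma collected ~48 h post-injection; FVII activity read against a standard curve from pooled vehicle-control plasma.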

[2] = tested on: PLK-1 mRNA in Hep3B tumors; assay: Hep3B tumor study, PLK-1 mRNA KD in tumor tissue; format: in vivo, human; details: Hep3B tumor, mouse, i.v., LNP composition as in the source
[3] = tested on: PLK-1 mRNA in HepG2 tumors; assay: HepG2 tumor study, PLK-1 mRNA KD in tumor tissue; format: in vivo, human; details: Mus musculus, HepG2, iv, 24 h, HepG2 tumor in nude mice, 3 × 3 mg/kg siRNA iv, tumors harvested 24 hrs after the last dose; read-out: PLK1 % inhibition
Description: (§1) Formulated siRNAs are made up of double stranded siRNA sequences specific to a target mRNA sequence, and are in the form of lipid nucleotid particles (LNPs) containing cationic lipids, stealth lipids and neutral lipids, as provided in the Examples below. The siRNA construct for use in targeting the liver is specific to Factor VII. The siRNA construct for use in targeting tumors is specific to PLK1-424, which is published by Judge et al., See, J Clin Invest. 2009 March; 119(3):661-73; doi: 10.1172/JCI37515). • 1. FVII siRNA duplex sequence
HepG2 tumors are established in female nude mice by sc injection of 5×10^6 cells in 100 ul PBS into the left flank. Mice are randomized into treatment groups 10-14 days after seeding as tumors reached an average size of 150 mm^3. siRNA formulated LNP formulations are administered at 3×3 mg/kg dose levels intravenously via the lateral tail vein calculated on a mg siRNAs/kg basis according to individual animal weights (10 ml/kg injection volume). Mice are euthanized by CO2 inhalation at various time points and the tumors are harvested 24 hrs after the last dose for mRNA quantitation. Lipids with a wide range of pKa (5.3-6.6) are used in the LNP formulations. Tumors are measured in 2 dimensions (width×length) to assess tumor growth using digital calipers. Tumor volume is calculated using the equation [a×b×b/2], where a=largest diameter and b=smallest diameter.
About 30-50 mg tumor tissue is homogenized in tissue lysis buffer in a Qiagen homogenizer followed by centrifugation to clarify lysates. Total RNA is isolated using RNeasy isolation kit (catalog number 74106) according to the manufacture's protocol. PLK-1 mRNA is analyzed by quantitative PCR and normalized to human GAPDH. Applied Biosystems human PLK-1 gene expression assay Hs00983229_m1 and human GAPDH endogenous control cat number 4326317E are used for mRNA detection.
The pKa in all tables refers to the pKa of the cationic lipid. Where multiple doses are indicated (e.g., 3×5), the first number indicates the number of doses given and the second number indicates the amount per dose in mg siRNA (biologically active agent) per kg mouse. In general the multiple doses are administered at 24 hour intervals, and tissues for mRNA quantitation are harvested 24 hours after the last dose.

[4] = pKa of the lipid by TNS fluorescence; format: physicochemical; details: pKa
How it was run: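 Lipid dissolved in ethanol (2 mM stock) and measured with TNS across eight buffers of differing pH, in water at standard temperature and pressure. Normalized fluorescence intensity plotted against pH and points joined by a smooth line to derive pKa, precise to about 0.2 units.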

[5] = tested on: PLK-1 mRNA in 786-0 tumors; assay: 786-0 renal tumor study, PLK-1 mRNA KD in tumor tissue; format: in vivo, human; details: tumors collected 48 hrs after the single dose, read-out: PLKI % Inhibition
Description: as §1
786-0 tumors are established as described before by sc injection of 10×10^6 cells in 200 ul PBS. 4 weeks post implantation, the mice with the tumor size ranging from 200-250 mm^3 are randomized into treatment groups. siRNA formulated LNPs are then intravenously administered at either 5 or 10 mg/kg dose levels. 48 hrs after the single dose, tumors are collected for mRNA quantitation.
About 30-50 mg tumor tissue is homogenized in tissue lysis buffer in a Qiagen homogenizer followed by centrifugation to clarify lysates. […] PLK-1 mRNA is analyzed by quantitative PCR and normalized to human GAPDH. […]
The pKa in all tables refers to the pKa of the cationic lipid. […] In general the multiple doses are administered at 24 hour intervals, and tissues for mRNA quantitation are harvested 24 hours after the last dose.

[6] = lipid/no neutral lipid/CHOL/GM-020 NOF 60/0/36/4, N/P 3

Structure (SMILES) | Final size (nm) ([1]; LNP formulation with PLK1 siRNA, helper, neutral and stealth lipid, molar ratio and N/P as in the table, stealth lipid S004, molar ratio 45/43/10/2, N/P 4) | Final size (nm) ([1]; LNP formulation with PLK1 siRNA, helper, neutral and stealth lipid, molar ratio and N/P as in the table, stealth lipid S004, molar ratio 50/48/2, N/P 4) | Final size (nm) ([1]; LNP formulation with PLK1 siRNA, helper, neutral and stealth lipid, molar ratio and N/P as in the table, stealth lipid S011, molar ratio 60/38/2, N/P 4) | Final size ([1]; Table 10) | Final size (nm) [1, 6] | PDI [1, 6] | FVII inhib % (Factor VII) | PLK1 inhibition % ([2]; 1 × 0.1 mg siRNA/kg) | PLK1 inhibition % ([2]; 1 × 5 mg siRNA/kg) | inhibition at 3 mg/kg [3] | pKa [4] | Final size ([1]; Table 11, lipid molar ratio 45/43/10/2) | Final size ([1]; Table 11, lipid molar ratio 50/48/2) | PLK1 inhibition % ([2]; 1 × 1 mg siRNA/kg, stealth lipid S004, molar ratio 50/48/2, N/P 3) | PLK1 inhibition % ([2]; 1 × 1 mg siRNA/kg, stealth lipid S004, molar ratio 50/48/2, N/P 4) | inhibition at 5 mg/kg ([5]; 1 × 5 mg/kg iv) | inhibition at 10 mg/kg ([5]; 1 × 10 mg/kg iv)
CCCCC/C=C\C/C=C\CCCCCCCCOCC(CN1CCCCC1)OCCO[C@H]1CC[C@@]2(C)C(=CC[C@H]3[C@@H]4CC[C@H]([C@H](C)CCCC(C)C)[C@@]4(C)CC[C@@H]32)C1 (stereo partly shown) [E0076] | 80.98 nm | 86.03 nm | 89.89 nm | 86.03 | 89.47 nm | 0.143 | 29.3% | 0% | 85% | 35% | 5.85 | – | – | – | – | – | –
CCCCC/C=C\C/C=C\CCCCCCCCOCC(CN1CCCCC1)OCCOC(=O)CCC(=O)O[C@H]1CC[C@@]2(C)C(=CC[C@H]3[C@@H]4CC[C@H]([C@H](C)CCCC(C)C)[C@@]4(C)CC[C@@H]32)C1 (stereo partly shown) [E0104] | – | – | – | – | – | – | – | – | – | 32% | 6.1 | 87.59 | 95.05 | 48% | 50% | 55% | 50%

Source: patent publication US9301923B2, “Lipids, lipid compositions, and methods of using them” (NOVARTIS AG, priority 2009, dated 2016)
